Laboratory results: ChEMBL document CHEMBL1137049 (Bioorg Med Chem Lett, 2004)

Experiments:
Histamine H4 receptor = Histamine H4 receptor (Homo sapiens, UniProt Q9H3N8); experiment: Binding affinity towards human histamine H4 receptor was determined by [3H]Na-methylhistamine binding to SK-N-MC cell membranes
Histamine H3 receptor [1] = target: T1, Histamine H3 receptor (Homo sapiens, UniProt Q9Y5N1); experiment: Binding affinity towards human histamine H3 receptor was determined by [3H]Na-methylhistamine binding to SK-N-MC cell membranes
T1 sequence (Q9Y5N1 whole entry): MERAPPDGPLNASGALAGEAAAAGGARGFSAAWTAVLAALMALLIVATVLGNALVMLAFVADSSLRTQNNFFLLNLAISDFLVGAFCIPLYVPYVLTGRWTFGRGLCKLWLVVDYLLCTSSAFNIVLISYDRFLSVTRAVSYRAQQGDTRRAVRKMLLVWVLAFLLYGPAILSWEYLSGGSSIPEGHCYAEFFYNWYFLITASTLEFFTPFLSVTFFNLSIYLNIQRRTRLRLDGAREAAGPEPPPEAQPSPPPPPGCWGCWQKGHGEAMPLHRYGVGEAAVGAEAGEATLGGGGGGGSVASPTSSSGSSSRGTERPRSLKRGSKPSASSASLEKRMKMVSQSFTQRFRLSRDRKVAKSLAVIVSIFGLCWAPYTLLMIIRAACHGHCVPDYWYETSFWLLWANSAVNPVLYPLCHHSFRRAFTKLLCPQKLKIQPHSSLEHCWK

Histamine H3 receptor [2] = target: T1, Histamine H3 receptor; experiment: Intrinsic activity against human histamine H3 receptor
Histamine H3 receptor [3] = target: T1, Histamine H3 receptor; experiment: Effective concentration required against human histamine H3 receptor was determined by the inhibition of the cAMP stimulated beta-galactosidase transcription in SK-N-MC cells; type: cell-based

Histamine H4 receptor, sequence (Q9H3N8 whole entry): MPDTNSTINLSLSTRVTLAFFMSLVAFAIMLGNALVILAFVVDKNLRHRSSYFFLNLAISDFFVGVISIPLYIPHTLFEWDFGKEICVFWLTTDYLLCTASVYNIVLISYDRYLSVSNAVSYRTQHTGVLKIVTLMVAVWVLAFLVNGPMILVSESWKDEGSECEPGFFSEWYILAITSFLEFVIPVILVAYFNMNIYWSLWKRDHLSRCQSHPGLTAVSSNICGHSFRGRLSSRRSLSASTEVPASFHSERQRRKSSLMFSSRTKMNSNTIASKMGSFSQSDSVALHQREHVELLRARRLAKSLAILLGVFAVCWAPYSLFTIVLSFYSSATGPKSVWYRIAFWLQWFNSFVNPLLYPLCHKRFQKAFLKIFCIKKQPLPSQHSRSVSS

| SMILES | Ki (Histamine H4 receptor) | Ki (Histamine H3 receptor [1]) | Intrinsic activity (Histamine H3 receptor [2]) | EC50 (Histamine H3 receptor [3]) |
| --- | --- | --- | --- | --- |
| CN1CCN(NC(=O)c2cc3cc(Cl)ccc3[nH]2)CC1 | 25.1 µM | – | – | – |
| CC(=O)Nc1nc2cc(Cl)ccc2[nH]1 | > 100 µM | – | – | – |
| CN1CCN(C(=O)c2cc3cc(Br)ccc3[nH]2)CC1 | 0.0316 µM | 3.16 µM | -0.7 | 1.58 µM |
| CN1CCN(NC(=O)c2nc3cc(Cl)ccc3[nH]2)CC1 | > 100 µM | – | – | – |
| CN1CCN(C(=O)c2cc3cc(Cl)ccc3[nH]2)CC1 [JNJ-7777120] | – | 2 µM | -0.7 | 1 µM |
| CN(C)CCN(C)C(=O)c1cc2cc(Cl)ccc2[nH]1 | 25.1 µM | – | – | – |
| CN(C)CCN(C)C(=O)c1nc2cc(Cl)ccc2[nH]1 | 25.1 µM | – | – | – |
| CN1CCN(C(=O)c2nc3ccc(Cl)cc3[nH]2)CC1 | – | – | -1 | – |
| CN(C)c1cccc(-c2nc3cc(Cl)ccc3[nH]2)c1 | > 100 µM | – | – | – |
| O=C(c1cc2cc(Cl)ccc2[nH]1)N1CCCCC1 | 7.94 µM | 6.31 µM | -0.6 | 3.16 µM |
| O=C(c1cc2cc(Cl)ccc2[nH]1)N1CCOCC1 | > 100 µM | – | – | – |
| CN1CCN(C(=O)Nc2nc3cc(Cl)ccc3[nH]2)CC1 | 20 µM | – | – | – |
| CN(C)CCNC(=O)c1cc2cc(Cl)ccc2[nH]1 | 3.16 µM | 5.01 µM | 0 | – |
| CN(C)CCNC(=O)c1nc2cc(Cl)ccc2[nH]1 | 1 µM | 25.1 µM | -0.5 | 3.16 µM |
| CN1CCC(C(O)c2cc3cc(Cl)ccc3[nH]2)CC1 (stereo not drawn) | 5.01 µM | 1.58 µM | -0.5 | 1 µM |
| CN(C)CCCNC(=O)c1cc2cc(Cl)ccc2[nH]1 | > 100 µM | – | – | – |
| CN1CCN(C(=O)c2nc3cc(Cl)ccc3[nH]2)CC1 | 0.0794 µM | 3.98 µM | – | 3.16 µM |
| CN1CCN(C(=O)c2cc3cc(I)ccc3[nH]2)CC1 | 0.0631 µM | 2.51 µM | -0.8 | 3.16 µM |
| CN1CCC(C(=O)c2cc3cc(Cl)ccc3[nH]2)CC1 | 0.2 µM | 3.16 µM | -0.5 | 1 µM |
